Measured values: article PMC12064818, “A general assay platform to study protein pharmacology using ligand-dependent structural dynamics” (Nature Communications, 2025)
Where two headings read alike, the source gives them in different places.

Assays:
[1] = biological target: FLuc-C-NLuc (firefly luciferase) (Photinus pyralis, UniProt P08659, form not given/L550V); experiment: SDR assay, FLuc-C-NLuc; conditions: - ATP
P. pyralis FLuc = P. pyralis FLuc (Photinus pyralis, UniProt P08659); experiment: FLuc enzymatic luminescence assay, P. pyralis FLuc; type: biochemical; conditions: FLuc enzymatic assay; for IC50: read-out: IC50 or SDR50 (mM) FLuc E
Method in brief: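 Runs with and without 10 µM ATP: compounds were pre-incubated with FLuc (1–10 nM, PBS pH 7.4) at ambient temperature, light-protected, for 30–60 min. Luminescence was imaged 5 min after adding 10 µM D-luciferin (final). Inhibition was scaled between DMSO neutral and no-enzyme controls.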

[2] = biological target: FLuc-C-HiBiT (firefly luciferase) (Photinus pyralis, UniProt P08659, form not given/L550V); experiment: SDR assay, FLuc-C-HiBiT; conditions: SDR max. response, clade S
NLuc = biological target: T1, NLuc (Oplophorus gracilirostris, UniProt Q9GV45, A31E/A60N/A81I/F95D/I117V/K70R/L54V/L99Q/M102K/N193R/P142E/Q151K/Q38R/Q45L/V71I/Y165I); type: biochemical; conditions: - ATP
T1 construct: His tag (inferred from IMAC purification); made in house; host or cells: E. coli
Procedure: Compounds and controls were added to plates as described in Supplementary Data 8. Nano-Glo luciferase assay reagent (Promega) was prepared fresh according to manufacturer’s protocol, filtered and added at 3 μL per well across assay plates with a BioRaptr2 dispenser. Enzyme was incubated with Nano-Glo reagent for 10 min and NLuc luminescence was read on a ViewLux CCD imager (PerkinElmer), with 1 s exposure with medium gain and 2x binning. Data were normalized to average no enzyme control as 100% enzyme inhibition and average DMSO neutral control. See Supplementary Table 4 for additional details.
Supplementary Table 4. […]
Sequence Param eter Value Description […]
5 Detector ViewLux Read plate lum inescence (Exposure = 1- 10 sec; Gain = Medium -high; Speed = Slow;
Dispensing solution was diluted in 1X PBS, pH 7.4.
NanoLuc luciferase (NLuc) enzym atic lum inescence assay […]
Nano-Glo luciferase assay reagent (Prom ega, Cat # N1120) prepared according to m anufacturer’s recom m endations,
4 com ponents stored at -30 °C until use, and reagent prepared fresh for each assay.
syringe filter prior to dispense.

T1 sequence (Q9GV45 other isoform, or with tags, fused parts or gaps with the stated changes): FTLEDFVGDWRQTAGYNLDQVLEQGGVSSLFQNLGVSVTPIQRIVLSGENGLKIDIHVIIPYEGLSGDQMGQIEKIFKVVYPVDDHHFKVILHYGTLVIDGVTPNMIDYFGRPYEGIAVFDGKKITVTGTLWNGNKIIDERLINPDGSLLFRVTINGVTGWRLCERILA
Sequence of FLuc-C-HiBiT (firefly luciferase) (P08659 2-550 L550V, form open): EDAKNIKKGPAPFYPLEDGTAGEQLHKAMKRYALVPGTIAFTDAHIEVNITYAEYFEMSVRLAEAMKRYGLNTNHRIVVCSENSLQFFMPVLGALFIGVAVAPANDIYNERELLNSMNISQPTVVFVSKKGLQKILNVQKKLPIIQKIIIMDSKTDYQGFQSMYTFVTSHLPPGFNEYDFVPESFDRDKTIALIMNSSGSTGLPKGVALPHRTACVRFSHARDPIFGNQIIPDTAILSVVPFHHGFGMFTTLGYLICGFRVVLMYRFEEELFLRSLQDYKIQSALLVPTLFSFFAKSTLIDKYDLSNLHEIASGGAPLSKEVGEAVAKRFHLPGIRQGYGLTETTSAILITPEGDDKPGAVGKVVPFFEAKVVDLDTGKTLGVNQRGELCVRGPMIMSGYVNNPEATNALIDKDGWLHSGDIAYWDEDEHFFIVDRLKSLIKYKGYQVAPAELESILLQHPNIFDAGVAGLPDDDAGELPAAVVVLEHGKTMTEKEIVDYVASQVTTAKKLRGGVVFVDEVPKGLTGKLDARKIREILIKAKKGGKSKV
Sequence of FLuc-C-NLuc (firefly luciferase) (P08659 2-550 L550V, form open): as above
Sequence of P. pyralis FLuc (P08659 whole entry): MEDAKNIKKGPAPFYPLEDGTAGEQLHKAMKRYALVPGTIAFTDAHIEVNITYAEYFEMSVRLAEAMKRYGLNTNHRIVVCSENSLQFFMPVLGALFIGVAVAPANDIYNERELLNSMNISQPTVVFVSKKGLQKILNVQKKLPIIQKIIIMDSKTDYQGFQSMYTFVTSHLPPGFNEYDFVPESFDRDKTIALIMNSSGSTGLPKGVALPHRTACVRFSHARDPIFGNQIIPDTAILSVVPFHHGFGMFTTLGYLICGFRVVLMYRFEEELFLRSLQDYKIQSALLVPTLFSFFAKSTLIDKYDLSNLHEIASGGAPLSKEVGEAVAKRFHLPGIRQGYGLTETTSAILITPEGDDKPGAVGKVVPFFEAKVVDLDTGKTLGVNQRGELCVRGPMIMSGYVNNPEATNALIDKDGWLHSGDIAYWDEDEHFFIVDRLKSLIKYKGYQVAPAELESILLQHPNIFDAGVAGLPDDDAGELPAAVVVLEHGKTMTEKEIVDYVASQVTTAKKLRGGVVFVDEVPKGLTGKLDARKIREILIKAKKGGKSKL

SMILES	Efficacy (%) FLuc-C-NLuc SDR (-ATP) [1]	Efficacy (%) FLuc E (P. pyralis FLuc; Clade S follow-up)	% Activity (max response, + ATP) [2]	% Activity (max response, - ATP) [2]	Efficacy (%) NLuc (- ATP) (NLuc)	pIC50 or pSDR50 FLuc E (P. pyralis FLuc)	IC50 (P. pyralis FLuc)	pIC50 or pSDR50 FLuc E (P. pyralis FLuc; Clade S follow-up)	IC50 (P. pyralis FLuc; Clade S follow-up)
CC(CNC(=O)C1CCN(C(=O)c2ncn3c2COC(c2ccc(F)cc2)C3)CC1)c1ccccc1 (centres unmarked) [NCGC00449827-01]	0.00%	-13.06%	15.49%	0.00%	0.00%				
O=C(NCCCc1ccccc1)C1CCN(C(=O)c2ncn3c2COC(c2ccc(F)cc2)C3)CC1 (centres unmarked) [NCGC00449829-01]	0.00%	-36.00%	29.00%	0.00%	-7.00%	4.96	0.0111 mM		
O=C(NCC1CCCCC1)C1CCN(C(=O)c2ncn3c2COC(c2ccc(F)cc2)C3)CC1 (centres unmarked) [NCGC00449830-01]	0.00%	0.00%	0.00%	0.00%	0.00%				
COCCNC(=O)C1CCN(C(=O)c2ncn3c2COC(c2ccc(F)cc2)C3)CC1 (centres unmarked) [NCGC00449834-01]	0.00%	-35.83%	67.53%	0.00%	0.00%			4.91	0.0124 mM
O=C(NCC1CCCO1)C1CCN(C(=O)c2ncn3c2COC(c2ccc(F)cc2)C3)CC1 (centres unmarked) [NCGC00449835-01]	0.00%	-45.21%	54.34%	0.00%	0.00%			5.01	0.00988 mM
Cc1cccc(CNC(=O)C2CCN(C(=O)c3ncn4c3COC(c3ccc(F)cc3)C4)CC2)c1 (centres unmarked) [NCGC00449836-01]	0.00%	-28.36%	48.27%	0.00%	-9.94%			4.91	0.0124 mM
O=C(NCc1cccc(F)c1)C1CCN(C(=O)c2ncn3c2COC(c2ccc(F)cc2)C3)CC1 (centres unmarked) [NCGC00449837-01]	0.00%	-43.87%	75.17%	0.00%	0.00%			5.01	0.00988 mM
O=C(NC1CC1)C1CCN(C(=O)c2ncn3c2COC(c2ccc(Cl)cc2)C3)CC1 (centres unmarked) [NCGC00449842-01]	0.00%	-28.68%	18.50%	0.00%	0.00%				
O=C(NC1CCCC1)C1CCN(C(=O)c2ncn3c2COC(c2ccc(Cl)cc2)C3)CC1 (centres unmarked) [NCGC00449843-01]	0.00%	-13.86%	0.00%	0.00%	0.00%				
O=C(NC1CCCCC1)C1CCN(C(=O)c2ncn3c2COC(c2ccc(Cl)cc2)C3)CC1 (centres unmarked) [NCGC00449844-01]	0.00%	-39.79%	33.25%	0.00%	0.00%			4.96	0.0111 mM
CC1CCC(NC(=O)C2CCN(C(=O)c3ncn4c3COC(c3ccc(Cl)cc3)C4)CC2)CC1 (centres unmarked) [NCGC00449845-01]	0.00%	0.00%	0.00%	0.00%	0.00%				
O=C(NC1CCCCCC1)C1CCN(C(=O)c2ncn3c2COC(c2ccc(Cl)cc2)C3)CC1 (centres unmarked) [NCGC00449846-01]	0.00%	-16.55%	13.50%	0.00%	0.00%				
O=C(NC1CCCCCCC1)C1CCN(C(=O)c2ncn3c2COC(c2ccc(Cl)cc2)C3)CC1 (centres unmarked) [NCGC00449847-01]	0.00%	-17.30%	0.00%	0.00%	0.00%				
